Like-named read-outs stand apart in the source and are kept apart here.
Molecular target: T1, human FXR (NR1H4) (Homo sapiens, UniProt Q96RI1)
T1 construct: host or cells: CHO (Chinese hamster ovary) reporter cells
T1 sequence (Q96RI1 1-486): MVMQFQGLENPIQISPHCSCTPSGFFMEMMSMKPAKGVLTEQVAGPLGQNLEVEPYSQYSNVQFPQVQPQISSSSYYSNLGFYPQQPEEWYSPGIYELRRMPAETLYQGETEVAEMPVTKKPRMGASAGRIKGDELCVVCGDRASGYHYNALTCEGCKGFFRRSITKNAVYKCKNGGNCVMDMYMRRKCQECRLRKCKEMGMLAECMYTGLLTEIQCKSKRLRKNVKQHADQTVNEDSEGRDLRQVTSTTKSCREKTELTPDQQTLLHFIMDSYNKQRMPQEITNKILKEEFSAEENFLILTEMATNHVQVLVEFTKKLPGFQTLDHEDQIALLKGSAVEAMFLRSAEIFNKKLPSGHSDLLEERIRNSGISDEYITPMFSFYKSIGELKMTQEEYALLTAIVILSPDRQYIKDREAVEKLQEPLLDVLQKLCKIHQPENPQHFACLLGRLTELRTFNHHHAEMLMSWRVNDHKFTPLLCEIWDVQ
Assay: Human FXR (NR1H4) Assay (Gal4 promoter driven luciferase reporter, CHO cells)
Assay type: cell-based
Source text: Assays Human FXR (NR1H4) Assay
Determination of a ligand mediated Gal4 promoter driven transactivation to quantify ligand binding mediated activation of FXR. FXR Reporter Assay kit purchased from Indigo Bioscience (Catalogue number: IB00601) to determine the potency and efficacy of compound developed by Enanta that can induce FXR activation. The principle application of this reporter assay system is to quantify functional activity of human FXR. The assay utilizes non-human mammalian cells, CHO (Chinese hamster ovary) cells engineered to express human NR1H4 protein (referred to as FXR). Reporter cells also incorporate the cDNA encoding beetle luciferase which catalyzes the substrates and yields photon emission. Luminescence intensity of the reaction is quantified using a plate-reading luminometer, Envision. Reporter Cells include the luciferase reporter gene functionally linked to an FXR responsive promoter. Thus, quantifying changes in luciferase expression in the treated reporter cells provides a sensitive surrogate measure of the changes in FXR activity. […] The assay is according to the manufacturer's instructions. In brief, the assay was performed in white, 96 well plates using final volume of 100 ul containing cells with different doses of compounds. Retrieve Reporter Cells from −80° C. storage. Perform a rapid thaw of the frozen cells by transferring a 10 ml volume of 37° C. cell recovery medium into the tube of frozen cells. Recap the tube of Reporter Cells and immediately place it in a 37° C. water bath for 5-10 minutes. Retrieve the tube of Reporter Cell Suspension from the water bath. Sanitize the outside surface of the tube with a 70% alcohol swab, and then transfer it into the cell culture hood. Dispense 90 μl of cell suspension into each well of the 96-well Assay Plate. Transfer the plate into 37° C. incubator, allowing the cells adherent to the bottom of the well. Dilute compounds in Dilution Plate (DP), and administrate to cells at Assay Plate (AP). DMSO content of the samples was kept at 0.2%. Cells were incubated for additional 22 hours before luciferase activities were measured. Thirty minutes before intending to quantify FXR activity, remove Detection Substrate and Detection Buffer from the refrigerator and place them in a low-light area so that they may equilibrate to room temperature. Remove the plate's lid and discard all media contents by ejecting it into an appropriate waste container. Gently tap the inverted plate onto a clean absorbent paper towel to remove residual droplets. Cells will remain tightly adhered to well bottoms. Add 100 μl of luciferase detection reagent to each well of the assay plate. Allow the assay plate to rest at room temperature for at least 5 minutes following the addition of LDR. Set the instrument (Envision) to perform a single 5 second “plate shake” prior to reading the first assay well. Read time may be 0.5 second (500 mSec) per well.

[1] = efficacy normalized to CDCA set as 100%

In the case of `CC(C)N(O)C(=O)CC[C@@H](C)[C@H]1CC[C@H]2[C@@H]3[C@H](O)C[C@@H]4C[C@H](O)CC[C@]4(C)[C@H]3CC[C@]12C` [Example 2], the EC50 is reported as > 10000 nM and the “Efficacy (%)” value [1] is reported as 13%.
With `C[C@H](CCC(=O)N(O)C1CCCCC1)[C@H]1CC[C@H]2[C@@H]3[C@H](O)C[C@@H]4C[C@H](O)CC[C@]4(C)[C@H]3CC[C@]12C` [Example 3] the EC50 was > 10000 nM and the “Efficacy (%)” value [1] was 2%.
With `CC[C@H]1[C@@H](O)[C@@H]2[C@H](CC[C@]3(C)[C@@H]([C@H](C)CCC(=O)N(O)Cc4ccccc4)CC[C@@H]23)[C@@]2(C)CC[C@@H](O)C[C@@H]12` [Example 4] the EC50 was 1000 to 10000 nM and the “Efficacy (%)” value [1] was 270%.
`CC[C@H]1[C@@H](O)[C@@H]2[C@H](CC[C@]3(C)[C@@H]([C@H](C)CCCc4cc(F)c(O)c(F)c4)CC[C@@H]23)[C@@]2(C)CC[C@@H](O)C[C@@H]12` [Example 9] was tested, and the EC50 was 1000 to 10000 nM and the “Efficacy (%)” value [1] was 271%.
With `CC[C@H]1[C@@H](O)[C@@H]2[C@H](CC[C@]3(C)[C@@H]([C@H](C)CCCS(=O)(=O)[O-])CC[C@@H]23)[C@@]2(C)CC[C@@H](O)C[C@@H]12.[Na+]` [Example 10] the EC50 was 1000 to 10000 nM and the “Efficacy (%)” value [1] was 4%.
`CC[C@H]1[C@@H](O)[C@@H]2[C@H](CC[C@]3(C)[C@@H]([C@H](C)CCS(=O)(=O)[O-])CC[C@@H]23)[C@@]2(C)CC[C@@H](O)C[C@@H]12.[Na+]` [Example 11] was tested, and the “Efficacy (%)” value was 1%.
`CC[C@H]1[C@@H](O)[C@@H]2[C@H](CC[C@]3(C)[C@@H]([C@H](C)CCS(=O)(=O)N(Cc4ccc(OC)cc4)Cc4ccc(OC)cc4)CC[C@@H]23)[C@@]2(C)CC[C@@H](O)C[C@@H]12` [Example 12] was tested, and the EC50 was 1000 to 10000 nM and the “Efficacy (%)” value [1] was 1%.
In the case of `CC[C@H]1[C@@H](O)[C@@H]2[C@H](CC[C@]3(C)[C@@H]([C@H](C)CCS(N)(=O)=O)CC[C@@H]23)[C@@]2(C)CC[C@@H](O)C[C@@H]12` [Example 13], the EC50 is reported as 1000 to 10000 nM and the “Efficacy (%)” value [1] is reported as 118%.
With `CC[C@H]1[C@@H](O)[C@@H]2[C@H](CC[C@]3(C)[C@@H]([C@H](C)CC=CCS(N)(=O)=O)CC[C@@H]23)[C@@]2(C)CC[C@@H](O)C[C@@H]12` [Example 14] the EC50 was 100 to 1000 nM and the “Efficacy (%)” value [1] was 167%.
For `CC[C@H]1[C@@H](O)[C@@H]2[C@H](CC[C@]3(C)[C@@H]([C@H](C)CCCCS(N)(=O)=O)CC[C@@H]23)[C@@]2(C)CC[C@@H](O)C[C@@H]12` [Example 15], the EC50 was 100 to 1000 nM and the “Efficacy (%)” value [1] was 195%.
`CC[C@H]1[C@@H](O)[C@@H]2[C@H](CC[C@]3(C)[C@@H]([C@H](C)CCCCS(=O)(=O)N(C)Cc4ccccc4)CC[C@@H]23)[C@@]2(C)CC[C@@H](O)C[C@@H]12` [Example 16] was tested, and the EC50 was 1000 to 10000 nM and the “Efficacy (%)” value [1] was 97%.
For `CC[C@H]1[C@@H](O)[C@@H]2[C@H](CC[C@]3(C)[C@@H]([C@H](C)CC=CS(N)(=O)=O)CC[C@@H]23)[C@@]2(C)CC[C@@H](O)C[C@@H]12` [Example 17], the EC50 was 100 to 1000 nM and the “Efficacy (%)” value [1] was 147%.
For `CC[C@H]1[C@@H](O)[C@@H]2[C@H](CC[C@]3(C)[C@@H]([C@H](C)/C=C/S(=O)(=O)NCc4ccc(OC)cc4)CC[C@@H]23)[C@@]2(C)CC[C@@H](O)C[C@@H]12` [Example 18], the EC50 was 1000 to 10000 nM and the “Efficacy (%)” value [1] was 16%.
For `CC[C@H]1[C@@H](O)[C@@H]2[C@H](CC[C@]3(C)[C@@H]([C@H](C)/C=C/S(N)(=O)=O)CC[C@@H]23)[C@@]2(C)CC[C@@H](O)C[C@@H]12` [Example 19], the EC50 was 1000 to 10000 nM and the “Efficacy (%)” value [1] was 3%.
With `CC[C@H]1[C@@H](O)[C@@H]2[C@H](CC[C@]3(C)[C@@H]([C@H](C)CCS(=O)(=O)NCc4ccc(OC)cc4)CC[C@@H]23)[C@@]2(C)CC[C@@H](O)C[C@@H]12` [Example 20] the EC50 was > 10000 nM and the “Efficacy (%)” value [1] was 60%.
For `CC[C@H]1[C@@H](O)[C@@H]2[C@H](CC[C@]3(C)[C@@H]([C@H](C)CCS(=O)(=O)NC(C)=O)CC[C@@H]23)[C@@]2(C)CC[C@@H](O)C[C@@H]12` [Example 21], the EC50 was 1000 to 10000 nM and the “Efficacy (%)” value [1] was 74%.
In the case of `CC[C@H]1[C@@H](O)[C@@H]2[C@H](CC[C@]3(C)[C@@H]([C@H](C)CCS(=O)(=O)NC(=O)c4ccccc4)CC[C@@H]23)[C@@]2(C)CC[C@@H](O)C[C@@H]12` [Example 22], the EC50 is reported as 1000 to 10000 nM and the “Efficacy (%)” value [1] is reported as 249%.
With `CC[C@H]1[C@@H](O)[C@@H]2[C@H](CC[C@]3(C)[C@@H]([C@H](C)CCCS(N)(=O)=O)CC[C@@H]23)[C@@]2(C)CC[C@@H](O)C[C@@H]12` [Example 23] the EC50 was 1000 to 10000 nM and the “Efficacy (%)” value [1] was 202%.
`CC[C@H]1[C@@H](O)[C@@H]2[C@H](CC[C@]3(C)[C@@H]([C@H](C)CCOP(=O)(O)c4ccccc4)CC[C@@H]23)[C@@]2(C)CC[C@@H](O)C[C@@H]12` [Example 24] was tested, and the EC50 was 1000 to 10000 nM and the “Efficacy (%)” value [1] was 75%.
In the case of `CC[C@H]1[C@@H](O)[C@@H]2[C@H](CC[C@]3(C)[C@@H]([C@H](C)CCCOP(=O)(Oc4ccccc4)c4ccccc4)CC[C@@H]23)[C@@]2(C)CC[C@@H](O)C[C@@H]12` (stereo partly drawn) [Example 26], the EC50 is reported as 1000 to 10000 nM and the “Efficacy (%)” value is reported as 129%.
In the case of `CCOP(=O)(CCC[C@@H](C)[C@H]1CC[C@H]2[C@@H]3[C@H](O)[C@H](CC)[C@@H]4C[C@H](O)CC[C@]4(C)[C@H]3CC[C@]12C)OCC` [Example 27], the EC50 is reported as 1000 to 10000 nM and the “Efficacy (%)” value is reported as 246%.
`CCOP(=O)(CCC[C@@H](C)[C@H]1CC[C@H]2[C@@H]3[C@H](O)[C@H](CC)[C@@H]4C[C@H](O)CC[C@]4(C)[C@H]3CC[C@]12C)c1ccccc1` (stereo partly drawn) [Example 28] was tested, and the EC50 was 100 to 1000 nM and the “Efficacy (%)” value was 265%.
With `CCOP(=O)(CC[C@@H](C)[C@H]1CC[C@H]2[C@@H]3[C@H](O)[C@H](CC)[C@@H]4C[C@H](O)CC[C@]4(C)[C@H]3CC[C@]12C)c1ccccc1` (stereo partly drawn) [Example 29] the EC50 was 1000 to 10000 nM and the “Efficacy (%)” value was 49. %.
